Each structure is given as a SMILES string.

Data set [1] addresses T1, 17-beta-hydroxysteroid dehydrogenase type 3 (Homo sapiens, UniProt P37058).
T1 sequence (P37058 whole entry): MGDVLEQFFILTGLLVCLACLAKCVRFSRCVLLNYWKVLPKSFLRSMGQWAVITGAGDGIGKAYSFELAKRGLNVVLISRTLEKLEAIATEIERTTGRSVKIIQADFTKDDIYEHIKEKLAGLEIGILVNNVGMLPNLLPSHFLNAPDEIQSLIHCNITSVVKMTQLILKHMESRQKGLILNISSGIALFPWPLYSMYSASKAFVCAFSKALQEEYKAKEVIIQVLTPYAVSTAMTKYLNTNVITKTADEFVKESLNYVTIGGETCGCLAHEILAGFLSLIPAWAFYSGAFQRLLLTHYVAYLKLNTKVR
Description: Inhibition of 17betaHSD3 (unknown origin) transfected in human LNCAP cells assessed as conversion of [14C]-4-androstene-3,17-dione into [14C]-testosterone after 3 hrs. The format is cell-based.

In data set [2] the test system is LNCaP. Description: Drug uptake in 17betaHSD3 expressing human LNCAP cells assessed as shape of the cells at 10 uM excited at 350 nm after 4 hrs by fluorescence confocal spinning disk microscopic analysis. Format: ADME, cell-based.
Data set [3] relates to LNCaP. Description: Drug uptake in wild type human LNCAP cells assessed as shape of the cells at 10 uM excited at 350 nm after 4 hrs by fluorescence confocal spinning disk microscopic analysis. The format is ADME, cell-based.
Data set [4] deals with LNCaP. The data set is described as follows: Drug uptake in 17betaHSD3 expressing human LNCAP cells assessed as mean fluorescence intensity at 30 uM after 4 hrs by flow cytometric analysis. Format: ADME, cell-based.
Data set [5] has as its system LNCaP. Description: Drug localization in 17betaHSD3 expressing human LNCAP cell assessed as localized space around endoplasmic reticulum at 1 uM preincubated for 3 hrs followed by ER tracker addition for the last remaining hour by fluorescent microscopic analysis. Format: ADME, cell-based.
A short description of data set [6]: Drug localization in 17betaHSD3 expressing human LNCAP cell assessed as localised around lysosomes at 1 uM after 4 hrs by fluorescent microscopic analysis in the presence of lysosome tracker. The format is ADME, cell-based.
Data set [7] deals with LNCaP. The data set is described as follows: Drug uptake in 17betaHSD3 expressing human LNCAP cells at 3 to 50 uM after 4 hrs by flow cytometric analysis. The format is ADME, cell-based. For orientation: Flow cytometry measures light scatter and fluorescence of single cells or particles in a stream.
Data set [8] concerns LNCaP. Description: Drug uptake in wild-type human LNCAP cells at 3 to 50 uM after 4 hrs by flow cytometric analysis. The format is ADME, cell-based.

Broadly, the IC50 is the point on the concentration scale where inhibition reaches its midpoint. In the case of `C[C@@H]1CN(S(=O)(=O)c2ccccc2C(F)(F)F)[C@@H](C)CN1C[C@@]1(O)CC[C@@]2(C)[C@@H](CC[C@@H]3[C@@H]2CC[C@]2(C)C(=O)CC[C@@H]32)C1`, the IC50 in data set [1] turned out to be 85 nM.
On to `C[C@@H]1CN(S(=O)(=O)c2cccc3c(N(C)C)cccc23)[C@@H](C)CN1C[C@@]1(O)CC[C@@]2(C)[C@@H](CC[C@@H]3[C@@H]2CC[C@]2(C)C(=O)CC[C@@H]32)C1`, for which the 50% inhibitory concentration (IC50) in data set [1] was 262 nM. For the same compound, the Drug uptake result in the data set on LNCaP [2] is listed as “Active”; in the data set with LNCaP [3] it was “Not Active”; in the data set with LNCaP [5], “Active”; in data set [6], “Active”; with LNCaP [7], “Active”; in the data set with LNCaP [8] it was “Active”. For the same compound, the Flu intensity in the data set on LNCaP [4] was determined as 4.
